Results on eight compounds are retold here after patent publication US20100184813A1, “CHEMICAL COMPOUNDS 553” (AstraZeneca AB, priority 2008, published 2010).

SMILES strings stand for the structures.

This assay addresses T1, human DGAT1 (Homo sapiens, UniProt O75907).
T1 construct: made in house; host or cells: Sf9 insect cells (baculovirus); membrane fraction
T1 sequence (O75907 1-488): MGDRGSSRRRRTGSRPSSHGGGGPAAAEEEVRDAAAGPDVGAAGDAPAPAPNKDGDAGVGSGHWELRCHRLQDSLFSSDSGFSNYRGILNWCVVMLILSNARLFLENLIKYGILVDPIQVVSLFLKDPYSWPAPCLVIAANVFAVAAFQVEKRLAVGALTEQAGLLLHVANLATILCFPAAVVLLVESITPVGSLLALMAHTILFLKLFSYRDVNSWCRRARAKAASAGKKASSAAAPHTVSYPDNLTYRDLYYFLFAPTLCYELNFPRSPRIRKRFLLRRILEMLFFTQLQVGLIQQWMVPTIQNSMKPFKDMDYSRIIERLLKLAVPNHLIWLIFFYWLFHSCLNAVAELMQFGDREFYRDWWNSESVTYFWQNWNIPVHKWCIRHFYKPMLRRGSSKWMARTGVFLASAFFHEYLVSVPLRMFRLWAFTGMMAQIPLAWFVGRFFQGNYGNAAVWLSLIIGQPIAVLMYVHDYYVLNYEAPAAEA
As to the kind of experiment: Human Enzyme Assay (DGAT1 inhibition, 14C oleoyl coenzyme A, insect cell membranes). The assay is classed as biochemical. To be noted: human DGAT1 expressed in sf9 insect cell membranes; usually a mean of 2 measurements. The procedure: See, for example, International Application WO 2005/044250.
The in vitro assay to identify DGAT1 inhibitors uses human DGAT1 expressed in insect cell membranes as the enzyme source (Proc. Natl. Acad. Sci. 1998, 95, 13018-13023). Briefly, sf9 cells were infected with recombinant baculovirus containing human DGAT1 coding sequences and harvested after 48 h. Cells were lysed by sonication and membranes isolated by centrifuging at 28000 rpm for 1 h at 4° C. on a 41% sucrose gradient. The membrane fraction at the interphase was collected, washed, and stored in liquid nitrogen.
DGAT1 activity was assayed by a modification of the method described by Coleman (Methods in Enzymology 1992, 209, 98-102). Compound at 0.0000256 μM-33 μM (final conc.) (typically 10 μM) was incubated with 4 μg/ml (final conc) membrane protein, 5 mM MgCl2, and 100 μM 1,2 dioleoyl-sn-glycerol (dissolved in acetone with a final assay conc. of acetone of 10%) in a total assay volume of 200 μl in a 96 well plate. The reaction was started by adding ^14C oleoyl coenzyme A (30 μM final concentration) and incubated at room temperature for 30 minutes. The reaction was stopped by adding 200 μl 2-propanol:heptane 7:1. Radioactive triolein product was separated into the organic phase by adding 300 μl heptane and 100 μl 0.1 M carbonate buffer pH 9.5. DGAT1 activity was quantified by counting aliquots of the upper heptane layer by liquid scintillography.
Stated figures are usually a mean of a number of measurements (usually 2 measurements) according to standard practice.
For `O=C(Nc1ccc([C@H]2CC[C@H](C(=O)O)CC2)cc1F)c1nnc(Nc2ccc(C(F)(F)F)cc2)o1` [Example 1, (1r,4r)-4-(3-Fluoro-4-(5-(4-(trifluoromethyl)phenylamino)-1,3,4-oxadiazole-2-carboxamido)phenyl)cyclohexanecarboxylic acid], it took 16 nM to reach half-maximal inhibition (IC50).
The result for `O=C(Nc1ccc([C@H]2CC[C@H](C(=O)O)CC2)cc1F)c1nnc(Nc2ccc(OC(F)F)cc2)o1` [Example 2] reads 28 nM; that for `O=C(Nc1ccc([C@H]2CC[C@H](C(=O)O)CC2)cc1F)c1nnc(Nc2ccc(OC(F)(F)F)cc2)o1` [Example 3, (1r,4r)-4-(3-Fluoro-4-(5-(4-(trifluoromethoxyl)phenylamino)-1,3,4-oxadiazole-2-carboxamido)phenyl)cyclohexanecarboxylic acid], 11 nM.
To `O=C(Nc1ccc([C@H]2CC[C@H](C(=O)O)CC2)cc1F)c1nnc(Nc2cccc(Cl)c2)o1` [Example 4, (1r,4r)-4-(4-(5-(3-Chlorophenylamino)-1,3,4-oxadiazole-2-carboxamido)-3-fluorophenyl)cyclohexanecarboxylic acid] belongs 12 nM; to `O=C(Nc1ccc([C@H]2CC[C@H](C(=O)O)CC2)cc1F)c1nnc(Nc2ccc(F)c(F)c2)o1` [Example 5, (1r,4r)-4-(4-(5-(3,4-Difluorophenylamino)-1,3,4-oxadiazole-2-carboxamido)-3-fluorophenyl)cyclohexanecarboxylic acid], 5.5 nM; to `O=C(Nc1ccc([C@H]2CC[C@H](C(=O)O)CC2)cc1F)c1nnc(Nc2cc(F)c(F)cc2F)o1` [Example 6, (1r,4r)-4-(3-Fluoro-4-(5-(2,4,5-trifluorophenylamino)-1,3,4-oxadiazole-2-carboxamido)phenyl)cyclohexanecarboxylic acid], 3.7 nM.
The result for `O=C(Nc1ccc([C@H]2CC[C@@H](C(=O)O)CC2)cc1F)c1nnc(Nc2ccc(F)c(F)c2)o1` [Example 7, (1s,4s)-4-(4-(5-(3,4-Difluorophenylamino)-1,3,4-oxadiazole-2-carboxamido)-3-fluorophenyl)cyclohexanecarboxylic acid] reads 9.2 nM; that for `O=C(Nc1ccc([C@H]2CC[C@@H](C(=O)O)CC2)cc1F)c1nnc(Nc2cc(F)c(F)cc2F)o1` [Example 8, (1s,4s)-4-(3-Fluoro-4-(5-(2,4,5-trifluorophenylamino)-1,3,4-oxadiazole-2-carboxamido)phenyl)cyclohexanecarboxylic acid], 4.7 nM.
